We go through nine molecules from PMC5558686 (British Journal of Cancer, 2017).

Data set [1] relates to UACC 903 xenografted tumours. The data set can be described thus: Xenografted melanoma tumour growth. The format is in vivo, athymic-Foxn1−/− (nude) mice. To be noted: for reduction of tumour growth / tumour inhibition: oral administration, UACC 903 xenograft, day 22.
The test system of data set [2] is UACC 903 cells. Kind of data set: Co-treatment with apoptosome inhibitor NS3694, viability. The format is cell-based. The following applies: 50 μMol/l NS-3694 co-treatment.
In data set [3] the test system is UACC 903, 1205 Lu and A2058 tumour development. Kind of data set: Xenografted melanoma tumour growth. The format is in vivo, athymic-Foxn1−/− (nude) mice. The following applies: for tumour weights lower than control groups: end of treatment, Figure 2E and H (UACC 903 and A2058); for decrease in tumour development: oral, perphenazine 50 mg kg^−1 or fluphenazine 25 mg kg^−1 at 4-day intervals.

A short description of data set [4]: CNS related sedation, video surveillance. The format is in vivo, Swiss Webster mice. To be noted: for onset of sedation after oral administration / persistence of sedation: xenograft mice, oral.
Data set [5] can be described thus: Body weight of treated mice. The format is in vivo. To be noted: for loss of body weight: xenograft mice, 2 days after oral drug treatments.
For data set [6], the system named is UACC 903 cells. The data set can be described thus: Western blot of autophagic flux markers LC3B and p62/SQSTM1. The format is cell-based. A general note: A western blot detects proteins with antibodies after separation by electrophoresis.
In data set [7] the test system is UACC 903 cells. The data set can be described thus: Cholesterol localisation assay. The format is cell-based. The following applies: after 6 h.
Data set [8] relates to UACC 903 cells. Kind of data set: Co-treatment with necrosis inhibitors IM-54 / Necrostatin-5, viability. The format is cell-based. The following applies: IM-54 and Necrostatin-5.
Data set [9] deals with BAX-knockout HCT116 cells. Kind of data set: Viability of BAX-knockout HCT116 cells. The format is cell-based, human. To be noted: 24 h, increasing concentrations.
The nature of data set [10]: Serum toxicity markers. The format is in vivo, mice. To be noted: serum at end of oral treatment.
Data set [11] is described as follows: H&E histology of major organs. The format is in vivo, mice. To be noted: oral treatment.
Data set [12] relates to UACC 903 cells. Kind of data set: Mitochondrial membrane potential. The format is cell-based.
Data set [13] has as its system prostate cancer. The following applies: phase-2; ref Clinical Trial Id: NCT00417274; cited from earlier work.
Data set [14] has as its system UACC 903 cells. The data set can be described thus: Caspase-dependence, z-VAD-fmk pre-treatment, viability. The format is cell-based. The following applies: z-VAD-fmk 20 μmol l^−1, 1 h pre-treatment; TRAIL 50 ng ml^−1.

Counter-ions that a name gives are not always drawn.

Take `CNCCCN1c2ccccc2CCc2ccccc21` [Desipramine, Desipramine HCL]: the “reduction of tumour growth / tumour inhibition” value in data set [1] worked out at 30%.

For `OCCN1CCN(CCC=C2c3ccccc3Sc3ccc(C(F)(F)F)cc32)CC1` [Flupentixol, Flupenthixol diHCL], in data set [2], the “protection from cell death by NS-3694” value is reported as “partially protected”.

Consider `OCCN1CCN(CCCN2c3ccccc3Sc3ccc(C(F)(F)F)cc32)CC1` [Fluphenazine], for which, in [3], the “tumour weights lower than control groups” value was 40–60% and the “decrease in tumour development” value is given as 40–60%. In data set [4], the “onset of sedation after oral administration” value is on record as “Thirty to sixty minutes” and the persistence of sedation was above 24 h. In data set [5], the “loss of body weight” value is given as 10%. In addition, the “LC3B and p62 protein levels (western blot)” value (“LC3B and p62 protein levels” below) in data set [6] was “dose-dependent accumulation of LC3B and p62 proteins”. Further, in data set [2], the “protection from cell death by NS-3694” value is “partially protected”.

Consider `CC(C)c1ccc2c(c1)CC[C@H]1[C@](C)(CN)CCC[C@]21C` [Leelamine], for which the “intracellular cholesterol accumulation (Filipin-III staining)” value in data set [7] was “intracellular cholesterol accumulation”. For the same molecule, the “protection from cell death by necrosis inhibitors” value in data set [8] is “neither of the two necrosis inhibitors, IM-54 and Necrostatin-5, protected”.

In the case of `CNCCC=C1c2ccccc2CCc2ccccc21` [Nortriptyline, Nortriptyline HCL], the “reduction of tumour growth / tumour inhibition” value in data set [1] worked out at 50%. Also, the “LC3B and p62 protein levels” value in [6] is “dose-dependent accumulation of LC3B and p62 proteins”.

With `OCCN1CCN(CCCN2c3ccccc3Sc3ccc(Cl)cc32)CC1` [Perphenazine], the “sensitivity of BAX-knockout compared with wild-type HCT116 cells” value in [9] was “more resistant”. Also, the “inhibition of UACC 903 tumour development by the free drug” value in data set [1] (12.5 or 25 mg kg^−1, orally every other day) is listed as “ineffective”. Further, in [1], the “reduction of tumour growth / tumour inhibition” value is reported as 60%. In addition, the “mitotic figures in H&E stained tumour sections” value in data set [1] (tumours from treated animals) is listed as “significant decrease in mitotic figure numbers”. Moreover, in data set [3], the “tumour weights lower than control groups” value is 40–60%. Besides, the “decrease in tumour development” value in data set [3] was 40–60%. Moreover, the “total bilirubin levels compared to controls” value in data set [10] is “significantly higher”. Further, the “histological analysis of vital organs” value in data set [11] is “no alteration in cell morphology or tissue architecture”. For the same molecule, the “% of time mice awake in 24 h period” value in data set [4] (15 mg kg^−1 oral) was “slightly greater sedative effect compared to liposomal treatment”; in data set [4] (50 mg kg^−1 oral) it was 6%. Also, in [4], the “onset of sedation after oral administration” value is reported as “Thirty to sixty minutes”. This molecule gave a persistence of sedation in [4] above 24 h. In addition, the body weight loss in data set [5] (Swiss Webster mice, following treatment) came out at 10%. Further, the “loss of body weight” value in data set [5] is reported as 10%. Moreover, the “LC3B and p62 protein levels” value in data set [6] is “dose-dependent accumulation of LC3B and p62 proteins”. Also, the “ΔΨmt − (cells that lost MMP)” value turned out to be 19% in [12] (6 h 10 μM) and 28% in data set [12] (6 h 15 μM). Further, the “protection from cell death by NS-3694” value in data set [2] is “partially protected”.

For the molecule `CCN(CC)CCO[C@H]1CC[C@@]2(C)C(=CC[C@@H]3[C@@H]2CC[C@]2(C)C(=O)CC[C@@H]32)C1.Cl` [U18666A, U-18666A], in data set [7], the “intracellular cholesterol accumulation (Filipin-III staining)” value is reported as “intracellular cholesterol accumulation”.

On to `CCN(CC)CCCC(C)Nc1c2ccc(Cl)cc2nc2ccc(OC)cc12` (stereo not shown) [quinacrine, Mepacrine (Quinacrine) DiHCL], for which, in [13], the “patients with stabilisation or decrease in the rate of disease progression” value was ~50 % of the patients.

B1: TRAIL: positive control for caspase-dependent cell death (50 ng ml^−1) (protein, UniProt P50591 1-281, looked up)
Tumor necrosis factor ligand …: MAMMEVQGGPSLGQTCVLIVIFTVLLQSLCVAVTYVYFTNELKQMQDKYSKSGIACFLKEDDSYWDPNDEESMNSPCWQVKWQLRQLVRKMILRTSEETISTVQEKQQNISPLVRERGPQRVAAHITGTRGRSNTLSSPNSKNEKALGRKINSWESSRSGHSFLSNLHLRNGELVIHEKGFYYIYSQTYFRFQEEIKENTKNDKQMVQYIYKYTSYPDPILLMKSARNSCWSKDAEYGLYSIYQGGIFELKENDRIFVSVTNEHLIDMDHEASFFGAFLVG
Take B1: the “effect of pan-caspase inhibitor z-VAD-fmk on cell death” value in [14] was “protected cells from apoptosis”.
